Source: US9758517B2, “Histone demethylase inhibitors” (Quanticel Pharmaceuticals, Inc., priority 2014, dated 2017)

What follows are compounds tested against JMJD2C (Homo sapiens (Human), UniProt Q9H3R0) (assay: In vitro enzyme inhibition assay, JMJD2C demethylase activity (TR-FRET)). Settings: 0.3 nM JMJD2C, 300 nM H3K9me3-biotin peptide, 2 μM alpha-ketoglutaric acid, 30 minutes at room temperature.
Assay type: biochemical
Procedure: This assay determines the ability of a test compound to inhibit JMJD2C demethylase activity. Baculovirus expressed JMJD2C (GenBank Accession #BC143571, AA 2-372) was purchased from BPS Bioscience (Cat#50105).
The ability of test compounds to inhibit the activity of JMJD2C was determined in 384-well plate format under the following reaction conditions: 0.3 nM JMJD2C, 300 nM H3K9me3-biotin labeled peptide (Anaspec cat #64360), 2 μM alpha-ketoglutaric acid in assay buffer of 50 mM HEPES, pH7.3, 0.005% Brij35, 0.5 mM TCEP, 0.2 mg/ml BSA, 50 μM sodium L-ascorbate, and 2 μM ammonium iron(II) sulfate. Reaction product was determined quantitatively by TR-FRET after the addition of detection reagent Phycolink Streptavidin-allophycocyanin (Prozyme) and Europium-anti-di-methylated histone H3 lysine 9 (H3K9me2) antibody (PerkinElmer) in the presence of 5 mM EDTA in LANCE detection buffer (PerkinElmer) at a final concentration of 50 nM and 1 nM, respectively.
The assay reaction was initiated by the following: 2 μL of the mixture of 900 nM H3K9me3-biotin labeled peptide and 6 μM alpha-ketoglutaric acid with 2 μL of 11-point serial diluted inhibitor in 3% DMSO were added to each well of the plate, followed by the addition of 2 μl of 0.9 nM JMJD2C to initiate the reaction. The reaction mixture was incubated at room temperature for 30 minutes, and terminated by the addition of 6 μL of 5 mM EDTA in LANCE detection buffer containing 100 nM Phycolink Streptavidin-allophycocyanin and 2 nM Europium-anti-H3K9me2 antibody. Plates were read by EnVisionMultilabel Reader in TR-FRET mode (excitation at 320 nm, emission at 615 nm and 665 nm) after 1 hour incubation at room temperature. A ratio was calculated (665/615) for each well and fitted to determine inhibition constant (IC50).

Sequence of JMJD2C (Q9H3R0 2-372): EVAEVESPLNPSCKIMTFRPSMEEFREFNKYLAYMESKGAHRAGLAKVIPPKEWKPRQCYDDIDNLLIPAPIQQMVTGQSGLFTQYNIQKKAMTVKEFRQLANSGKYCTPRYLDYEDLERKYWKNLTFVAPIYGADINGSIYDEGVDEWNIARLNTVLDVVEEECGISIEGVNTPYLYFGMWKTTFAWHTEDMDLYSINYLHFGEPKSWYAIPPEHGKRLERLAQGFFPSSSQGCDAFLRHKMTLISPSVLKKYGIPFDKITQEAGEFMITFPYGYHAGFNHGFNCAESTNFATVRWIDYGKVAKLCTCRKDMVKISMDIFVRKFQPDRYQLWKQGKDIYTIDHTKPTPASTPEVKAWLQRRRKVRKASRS

COc1ccc2c(-c3cc4nccc(C(=O)O)c4[nH]3)n(C)nc2c1 [Example 1, 2-(6-Methoxy-2-methyl-2H-indazol-3-yl)-1H-pyrrolo[3,2-b]pyridine-7-carboxylic acid] and COc1ccc2nn(C)c(-c3cc4nccc(C(=O)O)c4[nH]3)c2c1 [Example 2, 2-(5-Methoxy-2-methyl-2H-indazol-3-yl)-1H-pyrrolo[3,2-b]pyridine-7-carboxylic acid] fall in the same range of IC50: 0.1 to 1 µM for the first, 0.1 to 1 µM for the second.

Compared with Cn1nc2cc(Cl)ccc2c1-c1cc2nccc(C(=O)O)c2[nH]1 [Example 3, 2-(6-Chloro-2-methyl-2H-indazol-3-yl)-1H-pyrrolo[3,2-b]pyridine-7-carboxylic acid], Cn1nc2ccc(Cl)cc2c1-c1cc2nccc(C(=O)O)c2[nH]1 [Example 7, 2-(5-Chloro-2-methyl-2H-indazol-3-yl)-1H-pyrrolo[3,2-b]pyridine-7-carboxylic acid] is higher in IC50: 0.1 to 1 µM for the first, 1 to 10 µM for the second.

Cn1nc2ccc(C(F)(F)F)cc2c1-c1cc2nccc(C(=O)O)c2[nH]1 [Example 4, 2-[2-Methyl-5-(trifluoromethyl)-2H-indazol-3-yl]-1H-pyrrolo[3,2-b]pyridine-7-carboxylic acid] and Cn1nc2ccc(OC(F)(F)F)cc2c1-c1cc2nccc(C(=O)O)c2[nH]1 [Example 5, 2-[2-Methyl-5-(trifluoromethoxy)-2H-indazol-3-yl]-1H-pyrrolo[3,2-b]pyridine-7-carboxylic acid] fall in the same range of IC50: 1 to 10 µM for the first, 1 to 10 µM for the second.

First: Cn1nc2ccc(C3CC3)cc2c1-c1cc2nccc(C(=O)O)c2[nH]1 [Example 6, 2-(5-Cyclopropyl-2-methyl-2H-indazol-3-yl)-1H-pyrrolo[3,2-b]pyridine-7-carboxylic acid]
Second: O=C(O)c1ccnc2cc(-c3c4ccc(Cl)cc4nn3CC3CC3)[nH]c12 [Example 9, 2-[6-Chloro-2-(cyclopropylmethyl)-2H-indazol-3-yl]-1H-pyrrolo[3,2-b]pyridine-7-carboxylic acid]
The IC50 of the first is lower: 0.1 to 1 µM for the first, 1 to 10 µM for the second.

CCn1nc2cc(Cl)ccc2c1-c1cc2nccc(C(=O)O)c2[nH]1 [Example 8, 2-(6-Chloro-2-ethyl-2H-indazol-3-yl)-1H-pyrrolo[3,2-b]pyridine-7-carboxylic acid] and CCn1nc(-c2cc3nccc(C(=O)O)c3[nH]2)c2ccc(Cl)cc21 [Example 17, 2-(6-chloro-1-ethyl-1H-indazol-3-yl)-1H-pyrrolo[3,2-b]pyridine-7-carboxylic acid] fall in the same range of IC50: 1 to 10 µM for the first, 1 to 10 µM for the second.

O=C(O)c1ccnc2cc(-c3c4cc(Cl)ccc4nn3CCN3CCCC3)[nH]c12 [Example 10, 2-{5-Chloro-2-[2-(pyrrolidin-1-yl)ethyl]-2H-indazol-3-yl}-1H-pyrrolo[3,2-b]pyridine-7-carboxylic acid] and O=C(O)c1ccnc2cc(-c3nn(CCN4CCCC4)c4ccc(Cl)cc34)[nH]c12 [Example 20, 2-{5-chloro-1-[2-(pyrrolidin-1-yl)ethyl]-1H-indazol-3-yl}-1H-pyrrolo[3,2-b]pyridine-7-carboxylic acid] fall in the same range of IC50: 0.1 to 1 µM for the first, 0.1 to 1 µM for the second.

First: CN(c1ccccc1)c1ccc2c(-c3cc4nccc(C(=O)O)c4[nH]3)n(C)nc2c1 [Example 11, 2-{2-methyl-6-[methyl(phenyl)amino]-2H-indazol-3-yl}-1H-pyrrolo[3,2-b]pyridine-7-carboxylic acid]
Second: CN(c1ccccc1)c1cccc2c(-c3cc4nccc(C(=O)O)c4[nH]3)n(C)nc12 [Example 12, 2-{2-methyl-7-[methyl(phenyl)amino]-2H-indazol-3-yl}-1H-pyrrolo[3,2-b]pyridine-7-carboxylic acid]
The IC50 of the first is lower: 0.1 to 1 µM for the first, 1 to 10 µM for the second. The first is the more potent here.

Cn1nc(-c2cc3nccc(C(=O)O)c3[nH]2)c2ccccc21 [Example 13, 2-(1-methyl-1H-indazol-3-yl)-1H-pyrrolo[3,2-b]pyridine-7-carboxylic acid] and Cn1nc(-c2cc3nccc(C(=O)O)c3[nH]2)c2cc(F)ccc21 [Example 14, 2-(5-fluoro-1-methyl-1H-indazol-3-yl)-1H-pyrrolo[3,2-b]pyridine-7-carboxylic acid] fall in the same range of IC50: 0.1 to 1 µM for the first, 0.1 to 1 µM for the second.

Cn1nc(-c2cc3nccc(C(=O)O)c3[nH]2)c2ccc(Cl)cc21 [Example 15, 2-(6-chloro-1-methyl-1H-indazol-3-yl)-1H-pyrrolo[3,2-b]pyridine-7-carboxylic acid] and Cn1nc(-c2cc3nccc(C(=O)O)c3[nH]2)c2ccc(F)cc21 [Example 16, 2-(6-fluoro-1-methyl-1H-indazol-3-yl)-1H-pyrrolo[3,2-b]pyridine-7-carboxylic acid] fall in the same range of IC50: 0.1 to 1 µM for the first, 0.1 to 1 µM for the second.

O=C(O)c1ccnc2cc(-c3nn(CC4CC4)c4cc(Cl)ccc34)[nH]c12 [Example 18, 2-[6-chloro-1-(cyclopropylmethyl)-1H-indazol-3-yl]-1H-pyrrolo[3,2-b]pyridine-7-carboxylic acid] and O=C(O)c1ccnc2cc(-c3nn(CC(F)(F)F)c4cc(Cl)ccc34)[nH]c12 [Example 19, 2-[6-chloro-1-(2,2,2-trifluoroethyl)-1H-indazol-3-yl]-1H-pyrrolo[3,2-b]pyridine-7-carboxylic acid] fall in the same range of IC50: 1 to 10 µM for the first, 1 to 10 µM for the second.

O=C(O)c1ccnc2cc(-c3nn(CCN4CCOCC4)c4ccc(F)cc34)[nH]c12 [Example 21, 2-{5-fluoro-1-[2-(morpholin-4-yl)ethyl]-1H-indazol-3-yl}-1H-pyrrolo[3,2-b]pyridine-7-carboxylic acid] was tested, and the IC50 was 1 to 10 µM.
